Source: publication PMC10914731, “Homo-BacPROTAC-induced degradation of ClpC1 as a strategy against drug-resistant mycobacteria” (Nature Communications, 2024)
Converted amounts (≈) assume the structure as drawn. “And” between values parts separate entries of the source, which are not always exact repeats. Equal entries are not always repeated. Where two headings read alike, the source gives them in different places. *1 amine or outer side, *2 acyl side, *3 side chain or, on linkers, in order; H or OH if unused. Where a SMILES comes first, the peptide text is derived from it. [ ]: non-standard residue; d: D form. X1 = C#CCn1cc(C[C@H](N[*:1])C(=O)[*:2])c2ccccc21; NMeLeu(5-OH,4R) = CN[C@@H](C[C@@H](C)CO)C(=O)O; Phe(βR-OMe) = CO[C@H](c1ccccc1)[C@H](N)C(=O)O; NMeL = CN[C@@H](CC(C)C)C(=O)O

Key:
Mycobacterium avium = assay: microbe, parasite or virus in culture; format: cell-based
Mycobacterium fortuitum = assay: microbe, parasite or virus in culture; format: cell-based
Enterococcus faecium = assay: MIC ESKAPES panel, Enterococcus faecium; format: cell-based
Method: Minimum inhibitory concentration (MIC) against ESKAPES panel of Gram positive and Gram negative pathogens (Enterococcus faecium, Staphylococcus aureus, Klebsiella pneumoniae, Acinetobacter baumannii, Pseudomonas aeruginosa, Enterobacter cloacae and Salmonella typhimurium [ESKAPES panel]) were determined at the FNDR by the standard broth dilution method [CLSI, M100]. […] Mueller Hinton broth (MHB) medium was used to grow ESKAPES panel strains. The individual cultures were added as 200 μL (inoculum of 3–7 × 10^5 cfu/ml) to the respective assay plates in each well to all columns, except the media control (200 μL of medium). […] The assay plates were incubated at 37 °C, and the results were noted on the 2nd day as turbidometric readout. The clear wells indicated inhibition of growth, while the turbid wells indicated uninhibited growth.

[1] = Hepatocyte stability, mice; format: in vitro ADME; details: mouse, pH 7.4
Outline: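 1 µM cpd (DMSO <0.05% final), cryopreserved hepatocytes ~1e6 cells/mL, 50% serum, pH 7.4, 37 °C/5–10% CO2; up to 6 h, 6 timepoints; ACN quench, HPLC-MS/MS; t1/2 → CL via well-stirred model, % Qh.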

in vivo = format: in vivo, BALB/cAnNCrl mice
Method: The in-life experimental procedures were conducted in strict compliance with German and European animal welfare legislation in an AAALAC-accredited facility. Male BALB/cAnNCrl mice (Charles River Laboratories Research Models and Services, 97633 Sulzfeld, Germany) were used. Animals were 9 weeks old at dosing with a body weight of 21.6–24.3 g. Animals were delivered free of pathogens according to FELASA recommendations with a health certificate provided by the breeder. Upon receipt, the state of health and sex was checked. Animals acclimatized for at least 5 days before the commencement of the in-life phase. During acclimation, animals were group-housed in individually ventilated cages, on birch wood granulate bedding with species-specific enrichment (nesting material, mouse igloo, gnawing wood). During experimental conduct, animals were housed in conventional cages with elevated grid floors. Grid floor was used to avoid contamination with test item material excreted via urine and feces and subsequent reuptake during fur grooming. No bedding and enrichment were provided except a cage divider, which can be used as a shelter. Animals always had unlimited access to food and water and received a pelleted, total pathogen-free maintenance diet and tap drinking water, sterilized by filter.
In case of incomplete dissolution, the formulation was filtered at 40 °C (non-pyrogenic sterile-R filter, 0.2 µm). All formulations were stirred warm until administration. Actual test item content was determined bioanalytically.
Male BALB/cAnNCrl mice (n = 3 per test item and administration route) received a bolus dose of the formulated test item(s) (1 mg/kg iv, 30 mg/kg po) at t = 0 h, and whole blood samples were collected subsequently (35 µl at 0.1 (iv) / 0.25 (po), 0.5, 1, 2, 4, 6 h; 600 µl at sacrifice after 24 h). Animals were euthanized by exsanguination in deep isoflurane anesthesia. Whole blood samples were immediately stored on ice at about 4 °C. Plasma was separated by centrifugation at approximately 10,000 × g for 5 m at +4 °C. Centrifugation of each blood sample was started within 10 m after collection. A single aliquot of at least 15 µL of plasma was prepared and immediately stored at −20 ± 5 °C.
Sample proteins were precipitated with ACN (1 + 12, v/v) containing internal standard, and supernatants analyzed by quantitative UPLC-MS/MS: Phenomenex Luna Omega C18, 2.1 × 50 mm, 1.6 µm, 40 °C, gradient between 10% - 90% ACN with 0.1% formic acid. LogD determination: Lipophilicity of the test items, expressed as chromLogD7.5, was assessed by measuring their chromatographic retention times on C18-material. The chromatographic retention versus logD7.5 values of a series of thirteen n-alkan-2-ones (2-butanone – 2-hexadecanone) served as lipophilicity calibration.

[2] = Microsomal stability, human; format: in vitro ADME
Outline: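 Compound at 1 µmol/l incubated with 0.5 mg/ml liver microsomes in 100 mM Tris-HCl pH 7.5, 6.5 mM MgCl2, 1 mM NADPH, 37 °C; acetonitrile-quenched at multiple time points, measured by HPLC-MS/MS. First-order half-lives converted to clearance as %Qh via well-stirred liver model.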

[3] = Experiment 2, three replicate columns
[4] = Experiment 2, three replicate columns, read-out: MIC (µM) Mycobacterium avium
[5] = Mycobacterium avium, Experiment 1, read-out: MIC Mycobacterium avium
[6] = Mycobacterium avium, Experiment 2, three replicate columns, read-out: MIC (µM) Mycobacterium avium
[7] = Mycobacterium avium, Experiment 2, three replicate columns, read-out: MIC (µg/ml) Mycobacterium avium
[8] = Mycobacterium avium, mean ± SD, read-out: MIC Mycobacterium avium
[9] = Experiment 2, three replicate columns, read-out: MIC (µM) Mycobacterium fortuitum
[10] = Mycolicibacterium fortuitum, Experiment 1, read-out: MIC Mycobacterium fortuitum
[11] = Mycolicibacterium fortuitum, Experiment 2, three replicate columns, read-out: MIC (µM) Mycobacterium fortuitum
[12] = Mycolicibacterium fortuitum, Experiment 2, three replicate columns, read-out: MIC (µg/ml) Mycobacterium fortuitum
[13] = Mycolicibacterium fortuitum, mean ± SD, read-out: MIC Mycobacterium fortuitum
[14] = Enterococcus faecium, Gram positive, n = 3 well replicates
[15] = Enterococcus faecium, Gram-Positive Bacteria, replicates 1-3
[16] = iv bolus, individual animals 1-3
[17] = male, BALB/cAnNCrl, mouse, in vivo, iv, 1.062 umol/kg, iv bolus, individual animals 1-3
[18] = male, BALB/cAnNCrl, mouse, in vivo, iv, 1.062 umol/kg, iv bolus, mice, Mean
[19] = male, BALB/cAnNCrl, mouse, in vivo, iv, 1 mg/kg

SMILES: C#CCn1cc(C[C@@H]2NC(=O)[C@H](C(C)C)NC(=O)[C@H](CC(C)C)N(C)C(=O)[C@H](C(C)C)NC(=O)[C@H]([C@H](OC)c3ccccc3)NC(=O)[C@H](C)NC(=O)[C@H](C[C@@H](C)CO)N(C)C2=O)c2ccccc21 [Compound 5] (cyclo(A[Phe(βR-OMe)]V[NMeL]V[X1][NMeLeu(5-OH,4R)]))
- MIC (Mycobacterium avium; Experiment 1, read-out: MIC Mycobacterium avium): 6.3 µM
- MIC (µg/ml) Mycobacterium avium (Mycobacterium avium; [3]): 5.88 µg/mL (≈ 6.25 µM)
- MIC (Mycobacterium avium; [4]): 6.25 µM
- MIC (Mycobacterium avium; [5]): 5.9 µg/mL
- MIC (Mycobacterium avium; [6]): 6.25 µM
- MIC (Mycobacterium avium; [7]): 5.88 µg/mL
- MIC (Mycobacterium avium; [8]): 6.3 µM
- MIC (Mycobacterium fortuitum; Experiment 1, read-out: MIC Mycobacterium fortuitum): 6.3 µM
- MIC (µg/ml) Mycobacterium fortuitum (Mycobacterium fortuitum; [3]): 5.88 µg/mL (≈ 6.25 µM)
- MIC (Mycobacterium fortuitum; [9]): 6.25 µM
- MIC (Mycobacterium fortuitum; [10]): 5.9 µg/mL
- MIC (Mycobacterium fortuitum; [11]): 6.25 µM
- MIC (Mycobacterium fortuitum; [12]): 5.88 µg/mL
- MIC (Mycobacterium fortuitum; [13]): 6.3 µM
- MIC (Enterococcus faecium; [14]): > 50 µM
- MIC (Enterococcus faecium; [15]): > 47 µg/mL
- MIC (Enterococcus faecium; Gram-Positive Bacteria, replicates 1-3): >50 µM
- Hepatocyte Mice [1]: 58 %Qh
- AUC0-inf/Dose (in vivo; [16]): 180 h nM/(nmol kg-1) and 169 h nM/(nmol kg-1) and 158 h nM/(nmol kg-1)
- AUC0-t/Dose (in vivo; [16]): 177 h nM/(nmol kg-1) and 161 h nM/(nmol kg-1) and 154 h nM/(nmol kg-1)
- CL (in vivo; [16]): 98.5 mL/min/kg and 106 mL/min/kg
- CL PL QH (in vivo; [16]): 103.0% and 109.0% and 117.0%
- Cmax/Dose (in vivo; [16]): 488 nM/(nmol kg-1) and 361 nM/(nmol kg-1) and 396 nM/(nmol kg-1)
- MRT (in vivo; [16]): 54 min and 42 min
- Plasma concentration 0.1 h (in vivo; [16]): 518 nM and 384 nM and 421 nM
- Plasma concentration 0.5 h (in vivo; [16]): 85.1 nM and 88.1 nM and 71.5 nM
- Plasma concentration 1 h (in vivo; [16]): 33.6 nM and 37.9 nM and 32.6 nM
- Plasma concentration 2 h (in vivo; [16]): 12.3 nM and 14.2 nM and 13.4 nM
- Plasma concentration 4 h (in vivo; [16]): 2.7 nM and 4.8 nM and 2.9 nM
- Vss (in vivo; [16]): 5.6 L/kg and 4.6 L/kg
- t1/2 (in vivo; [16]): 78 min
- AUC0-inf/Dose (in vivo; iv bolus, mice, Mean): 169 h nM/(nmol kg-1)
- AUC0-t/Dose (in vivo; iv bolus, mice, Mean): 164 h nM/(nmol kg-1)
- CL PL QH (in vivo; iv bolus, mice, Mean): 110.0%
- Cmax/Dose (in vivo; iv bolus, mice, Mean): 415 nM/(nmol kg-1)
- Plasma concentration 0.1 h (in vivo; iv bolus, mice, Mean): 441 nM
- Plasma concentration 0.5 h (in vivo; iv bolus, mice, Mean): 81.6 nM
- Plasma concentration 1 h (in vivo; iv bolus, mice, Mean): 34.7 nM
- Plasma concentration 2 h (in vivo; iv bolus, mice, Mean): 13.3 nM
- Plasma concentration 4 h (in vivo; iv bolus, mice, Mean): 3.5 nM
- clearance (in vivo; [17]): 92.3 mL/min/kg
- half-life (in vivo; [17]): 54 min
- MRT (in vivo; male, BALB/cAnNCrl, mouse, in vivo, iv, 1.062 umol/kg, iv bolus, individual animals 1-3, read-out: MRT): 36 min
- Vd (in vivo; male, BALB/cAnNCrl, mouse, in vivo, iv, 1.062 umol/kg, iv bolus, individual animals 1-3, read-out: Vss): 3.5 L/kg
- clearance (in vivo; [18]): 98.8 mL/min/kg
- half-life (in vivo; [18]): 60 min
- MRT (in vivo; male, BALB/cAnNCrl, mouse, in vivo, iv, 1.062 umol/kg, iv bolus, mice, Mean, read-out: MRT): 48 min
- Vd (in vivo; male, BALB/cAnNCrl, mouse, in vivo, iv, 1.062 umol/kg, iv bolus, mice, Mean, read-out: Vss): 4.5 L/kg
- Vd (in vivo; male, BALB/cAnNCrl, mouse, in vivo, iv, 1 mg/kg, mice, 1 mg kg-1 iv bolus, read-out: VSS): 4.54 L/kg
- clearance (in vivo; male, BALB/cAnNCrl, mouse, in vivo, iv, 1 mg/kg, plasma clearance, mice, 1 mg kg-1 iv bolus): 98.8 mL/min/kg
- half-life (in vivo; male, BALB/cAnNCrl, mouse, in vivo, iv, 1 mg/kg, plasma, mice, 1 mg kg-1 iv bolus): 61.8 min
- AUC (in vivo; mouse, in vivo, iv): 164 h nM/(nmol kg-1)
- Cmax (in vivo; mouse, in vivo, iv): 415 nM/(nmol kg-1)
- Plasma concentration 6 h (in vivo; mouse, in vivo, iv): BLOQ
- Plasma concentration 24 h (in vivo; mouse, in vivo, iv): BLOQ
- Microsomal Stability Human QH ([2]; Human): >88.400%
- Microsomal Stability Human ([2]; clearance in microsomes): > 88 %Qh

SMILES: COC(c1ccccc1)C1NC(=O)C(C)NC(=O)C(CC(C)CO)N(C)C(=O)C(Cc2cn(C)c3ccccc23)NC(=O)C(Cc2cn(CCCCCn3cc(CC4NC(=O)C(CC(C)C)N(C)C(=O)C(C(C)C)NC(=O)C(C(OC)c5ccccc5)NC(=O)C(C)NC(=O)C(CC(C)CO)N(C)C(=O)C(Cc5cn(C)c6ccccc56)NC4=O)nn3)nn2)NC(=O)C(CC(C)C)N(C)C(=O)C(C(C)C)NC1=O (centres unmarked) [Compound 12]
- MIC (Mycobacterium avium; Experiment 1, listed as 12 (UdSBI-4377), read-out: MIC Mycobacterium avium): >50 µM
- MIC (µg/ml) Mycobacterium avium (Mycobacterium avium; [3]): >99.02 µg/mL
- MIC (Mycobacterium avium; [4]): >50 µM
- MIC (Mycobacterium avium; [5]): > 99 µg/mL
- MIC (Mycobacterium avium; [6]): > 50 µM
- MIC (Mycobacterium avium; [7]): > 99 µg/mL
- MIC (Mycobacterium avium; [8]): > 50 µM
- MIC (Mycobacterium fortuitum; Experiment 1, listed as 12 (UdSBI-4377), read-out: MIC Mycobacterium fortuitum): >50 µM
- MIC (µg/ml) Mycobacterium fortuitum (Mycobacterium fortuitum; [3]): >99.02 µg/mL
- MIC (Mycobacterium fortuitum; [9]): >50 µM
- MIC (Mycobacterium fortuitum; [10]): > 99 µg/mL
- MIC (Mycobacterium fortuitum; [11]): > 50 µM
- MIC (Mycobacterium fortuitum; [12]): > 99 µg/mL
- MIC (Mycobacterium fortuitum; [13]): > 50 µM
- MIC (Enterococcus faecium; [14]): > 50 µM
- MIC (Enterococcus faecium; [15]): > 99 µg/mL
- MIC (Enterococcus faecium; Gram-Positive Bacteria, replicates 1-3, listed as 12 (UdSBI-4377)): >50 µM
- Hepatocyte Mice [1]: 15 %Qh
- Cl (in vivo; [19]): 4.14 mL/min/kg
- T1/2 (in vivo; [19]): 82.2 min
- VSS (in vivo; [19]): 0.42 L/kg
- AUC (in vivo; mouse, in vivo, iv): 3870 h nM/(nmol kg-1)
- Cmax (in vivo; mouse, in vivo, iv): 3270 nM/(nmol kg-1)
- Plasma concentration 24 h (in vivo; mouse, in vivo, iv): BLOQ
- Microsomal Stability Human ([2]; human, microsomes, pH 7.5): < 24 %Qh
- Microsomal Stability Human QH ([2]; human, microsomes, pH 7.5): <24.4%
